In ChEMBL document CHEMBL3751720, “Investigating molecular dynamics-guided lead optimization of EGFR inhibitors” (Bioorg Med Chem, 2016):

molecular target: Epidermal growth factor receptor (Homo sapiens) (UniProt P00533); assay: Inhibition of wild-type EGFR (unknown origin) assessed as enzyme residual activity at 10 uM for 60 mins by microplate scintillation counter in presence of [gamma-33P]-ATP
Sequence (P00533 whole entry): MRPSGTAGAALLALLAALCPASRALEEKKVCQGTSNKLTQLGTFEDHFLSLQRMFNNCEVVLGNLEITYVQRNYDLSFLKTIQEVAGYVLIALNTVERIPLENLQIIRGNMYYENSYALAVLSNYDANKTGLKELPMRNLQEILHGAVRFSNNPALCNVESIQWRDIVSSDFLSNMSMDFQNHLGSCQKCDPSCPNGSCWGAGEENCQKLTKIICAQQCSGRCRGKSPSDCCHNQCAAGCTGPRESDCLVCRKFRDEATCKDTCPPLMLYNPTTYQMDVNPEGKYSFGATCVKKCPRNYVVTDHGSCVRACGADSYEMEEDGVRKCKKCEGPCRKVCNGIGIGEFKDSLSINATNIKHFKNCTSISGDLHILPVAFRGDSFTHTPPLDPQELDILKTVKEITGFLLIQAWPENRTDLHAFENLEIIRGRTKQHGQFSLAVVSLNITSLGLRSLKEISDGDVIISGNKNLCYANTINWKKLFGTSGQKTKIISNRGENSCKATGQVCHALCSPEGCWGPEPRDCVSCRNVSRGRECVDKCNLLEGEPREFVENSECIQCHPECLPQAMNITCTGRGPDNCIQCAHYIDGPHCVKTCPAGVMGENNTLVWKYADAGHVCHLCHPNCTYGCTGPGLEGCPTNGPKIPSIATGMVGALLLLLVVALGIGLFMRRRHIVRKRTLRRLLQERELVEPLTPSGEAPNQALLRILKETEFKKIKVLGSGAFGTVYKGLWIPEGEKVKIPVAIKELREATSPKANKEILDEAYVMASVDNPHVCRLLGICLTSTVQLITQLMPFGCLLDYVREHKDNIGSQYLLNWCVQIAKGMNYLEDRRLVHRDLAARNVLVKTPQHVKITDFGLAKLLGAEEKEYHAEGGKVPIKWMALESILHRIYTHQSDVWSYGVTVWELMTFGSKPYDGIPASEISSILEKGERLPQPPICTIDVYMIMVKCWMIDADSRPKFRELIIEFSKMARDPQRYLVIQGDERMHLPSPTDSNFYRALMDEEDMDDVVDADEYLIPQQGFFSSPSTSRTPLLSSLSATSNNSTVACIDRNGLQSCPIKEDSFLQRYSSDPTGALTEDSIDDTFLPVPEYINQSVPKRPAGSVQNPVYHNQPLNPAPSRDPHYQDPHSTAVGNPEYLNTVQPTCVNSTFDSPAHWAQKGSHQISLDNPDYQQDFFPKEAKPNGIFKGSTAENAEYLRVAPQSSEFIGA

Activity | Compound
3% | Cn1c(=O)c(-c2c(Br)cccc2Br)cc2c(N)nc(Nc3ccccc3)nc21
14% | Cn1c(=O)c(-c2c(Cl)cccc2Cl)cc2c(N)nc(Nc3ccccc3)nc21
61% | Cn1c(=O)c(-c2c(F)cccc2C(F)(F)F)cc2c(N)nc(Nc3ccccc3)nc21
49% | Cn1c(=O)c(-c2ccccc2)cc2c(N)nc(Nc3ccccc3)nc21
